Test results published in the NIST ThermoML archive (doi:10.1021/je0340250).
Numbers after ± are expanded uncertainties.

Legend:
[1] = xn = mol fraction of the nth substance listed

CN1CCOCC1 [N-methylmorpholine]
Details	surface tension liquid-gas [mN/m]
298.15 K	28.22 ± 0.69
308.15 K	27.2 ± 0.67
318.15 K	26.18 ± 0.64
328.15 K	25.15 ± 0.62

CN1CCOCC1 [N-methylmorpholine] + O
surface tension liquid-gas [mN/m], [1]
Details	298.15 K	308.15 K	318.15 K	328.15 K
x1 = 0.0082	69.64 ± 1.6	67.64 ± 1.6	65.75 ± 1.5	63.98 ± 1.5
x1 = 0.0256	54.94 ± 1.3	53.18 ± 1.2	51.42 ± 1.2	49.66 ± 1.2
x1 = 0.0481	50.58 ± 1.2	48.64 ± 1.1	46.7 ± 1.1	44.76 ± 1.1
x1 = 0.0539	49.42 ± 1.2	47.71 ± 1.1	46 ± 1.1	44.3 ± 1
x1 = 0.0747	46.86 ± 1.1	45.35 ± 1.1	43.83 ± 1	42.32 ± 1
x1 = 0.0992	44.62 ± 1.1	43.24 ± 1	41.87 ± 0.99	40.49 ± 0.95
x1 = 0.1962	38.66 ± 0.92	37.36 ± 0.88	36.05 ± 0.85	34.75 ± 0.82
x1 = 0.2972	34.9 ± 0.83	33.66 ± 0.8	32.43 ± 0.77	31.19 ± 0.74
x1 = 0.395	32.72 ± 0.78	31.54 ± 0.75	30.35 ± 0.73	29.16 ± 0.7
x1 = 0.4993	31.33 ± 0.75	30.17 ± 0.73	29.02 ± 0.7	27.86 ± 0.67
x1 = 0.5952	30.56 ± 0.74	29.47 ± 0.71	28.37 ± 0.69	27.28 ± 0.66
x1 = 0.6979	29.81 ± 0.72	28.73 ± 0.7	27.65 ± 0.67	26.57 ± 0.65
x1 = 0.8028	29.24 ± 0.71	28.14 ± 0.68	27.03 ± 0.66	25.93 ± 0.63
x1 = 0.8925	28.81 ± 0.7	27.69 ± 0.68	26.57 ± 0.65	25.45 ± 0.63
x1 = 1	28.22 ± 0.69	27.2 ± 0.67	26.18 ± 0.64	25.15 ± 0.62

C1COCCN1 [tetrahydro-1,4-oxazine]
Details	surface tension liquid-gas [mN/m]
298.15 K	37.68 ± 0.91
308.15 K	36.46 ± 0.88
318.15 K	35.24 ± 0.85
328.15 K	34.02 ± 0.83

C1COCCN1 [tetrahydro-1,4-oxazine] + O
surface tension liquid-gas [mN/m], [1]
Details	298.15 K	308.15 K	318.15 K	328.15 K
x1 = 0.0125	68.36 ± 1.6	66.65 ± 1.6	64.55 ± 1.5	62.68 ± 1.5
x1 = 0.0155	67.66 ± 1.6	65.85 ± 1.5	66.74 ± 6	61.8 ± 1.4
x1 = 0.0251	65.41 ± 1.5	63.27 ± 1.5	61.14 ± 1.4	59 ± 1.4
x1 = 0.0496	62.08 ± 1.4	60.05 ± 1.4	58.03 ± 1.4	56 ± 1.3
x1 = 0.06	60.89 ± 1.4	58.94 ± 1.4	56.98 ± 1.3	55.03 ± 1.3
x1 = 0.0735	59.6 ± 1.4	57.66 ± 1.3	55.72 ± 1.3	53.78 ± 1.3
x1 = 0.0793	59.43 ± 1.4	57.69 ± 1.3	55.63 ± 1.3	53.65 ± 1.3
x1 = 0.0854	58.94 ± 1.4	56.56 ± 1.3	54.18 ± 1.3	51.8 ± 1.2
x1 = 0.0991	57.71 ± 1.4	55.42 ± 1.3	53.12 ± 1.2	50.83 ± 1.2
x1 = 0.2005	51.23 ± 1.2	49.14 ± 1.1	47.05 ± 1.1	44.96 ± 1.1
x1 = 0.2973	47.24 ± 1.1	45.52 ± 1.1	43.8 ± 1	42.09 ± 0.99
x1 = 0.3969	44.64 ± 1.1	43.2 ± 1	41.75 ± 0.99	40.31 ± 0.95
x1 = 0.4996	43.06 ± 1	41.7 ± 0.99	40.33 ± 0.96	38.97 ± 0.93
x1 = 0.5977	41.55 ± 0.99	40.25 ± 0.96	38.96 ± 0.93	37.66 ± 0.9
x1 = 0.7005	40.33 ± 0.96	39.12 ± 0.93	37.91 ± 0.91	36.7 ± 0.88
x1 = 0.8034	39.3 ± 0.94	38.1 ± 0.91	36.9 ± 0.89	35.69 ± 0.86
x1 = 0.9096	38.38 ± 0.92	37.16 ± 0.89	35.95 ± 0.87	34.73 ± 0.84
x1 = 1	37.68 ± 0.91	36.46 ± 0.88	35.24 ± 0.85	34.02 ± 0.83

O [water] + C1COCCN1
[1], x2 = 0
Details	surface tension liquid-gas [mN/m]
298.15 K	72.01 ± 1.7
308.15 K	70.41 ± 1.6
318.15 K	68.79 ± 1.6
328.15 K	67.17 ± 1.6

O [water] + CN1CCOCC1
[1], x2 = 0
Details	surface tension liquid-gas [mN/m]
298.15 K	72.01 ± 1.7
308.15 K	70.41 ± 1.6
318.15 K	68.79 ± 1.6
328.15 K	67.17 ± 1.6
